Reference: patent publication US11787865B2, “Bifunctional molecules for lysosomal targeting and related compositions and methods” (The Board of Trustees of the Leland Stanford Junior …, priority 2018, dated 2023)

How the values were obtained:
mouse IgG (IgG-AF647) = test: Cellular uptake of IgG-AF647 in HUH7 cells; format: cell-based; settings: HUH7 cells incubated with inhibitor
Description: To assess whether a bifunctional molecule comprising ASGPR ligands could indeed shuttle cargo to lysosomes in hepatocytes, an assay schematically illustrated in FIG. 21 was employed. A bifunctional molecule comprising an anti-mouse IgG antibody conjugated to a poly(GalNAc-co-Ala) polymer was tested to determine whether the bifunctional molecule could shuttle extracellular fluorescent-labeled mouse IgG (IgG-AF647) into the intracellular compartment of hepatocytes. […] HEPG2 cells (hepatocellular carcinoma cell line) were incubated with 50 nM IgG-AF647 and 25 nM of anti-mouse conjugates for 1 hour. Cellular uptake was analyzed by flow cytometry. As shown by the bar graph, an approximately 8-fold increase in cell fluorescence was observed using the GalNAc-containing conjugate while the M6Pn-containing conjugate induced 2-fold increase over background.
Shown in FIG. 22 are results from the assay described for FIG. 21 but in HUH7 cells (another hepatocellular carcinoma cell line). […] In addition, controls were included in which the cells were incubated with M6PR or ASGPR inhibitors (monomeric M6P (mM6P) and monomeric GalNAc (mGalNAc), respectively).

[1] = target: cation independent M6PR (CIM6PR) (Homo sapiens, UniProt P11717); settings: relative to mannose-6-phosphate glycans; cited from earlier work
cation independent M6PR (CIM6PR), sequence (P11717 41-2491): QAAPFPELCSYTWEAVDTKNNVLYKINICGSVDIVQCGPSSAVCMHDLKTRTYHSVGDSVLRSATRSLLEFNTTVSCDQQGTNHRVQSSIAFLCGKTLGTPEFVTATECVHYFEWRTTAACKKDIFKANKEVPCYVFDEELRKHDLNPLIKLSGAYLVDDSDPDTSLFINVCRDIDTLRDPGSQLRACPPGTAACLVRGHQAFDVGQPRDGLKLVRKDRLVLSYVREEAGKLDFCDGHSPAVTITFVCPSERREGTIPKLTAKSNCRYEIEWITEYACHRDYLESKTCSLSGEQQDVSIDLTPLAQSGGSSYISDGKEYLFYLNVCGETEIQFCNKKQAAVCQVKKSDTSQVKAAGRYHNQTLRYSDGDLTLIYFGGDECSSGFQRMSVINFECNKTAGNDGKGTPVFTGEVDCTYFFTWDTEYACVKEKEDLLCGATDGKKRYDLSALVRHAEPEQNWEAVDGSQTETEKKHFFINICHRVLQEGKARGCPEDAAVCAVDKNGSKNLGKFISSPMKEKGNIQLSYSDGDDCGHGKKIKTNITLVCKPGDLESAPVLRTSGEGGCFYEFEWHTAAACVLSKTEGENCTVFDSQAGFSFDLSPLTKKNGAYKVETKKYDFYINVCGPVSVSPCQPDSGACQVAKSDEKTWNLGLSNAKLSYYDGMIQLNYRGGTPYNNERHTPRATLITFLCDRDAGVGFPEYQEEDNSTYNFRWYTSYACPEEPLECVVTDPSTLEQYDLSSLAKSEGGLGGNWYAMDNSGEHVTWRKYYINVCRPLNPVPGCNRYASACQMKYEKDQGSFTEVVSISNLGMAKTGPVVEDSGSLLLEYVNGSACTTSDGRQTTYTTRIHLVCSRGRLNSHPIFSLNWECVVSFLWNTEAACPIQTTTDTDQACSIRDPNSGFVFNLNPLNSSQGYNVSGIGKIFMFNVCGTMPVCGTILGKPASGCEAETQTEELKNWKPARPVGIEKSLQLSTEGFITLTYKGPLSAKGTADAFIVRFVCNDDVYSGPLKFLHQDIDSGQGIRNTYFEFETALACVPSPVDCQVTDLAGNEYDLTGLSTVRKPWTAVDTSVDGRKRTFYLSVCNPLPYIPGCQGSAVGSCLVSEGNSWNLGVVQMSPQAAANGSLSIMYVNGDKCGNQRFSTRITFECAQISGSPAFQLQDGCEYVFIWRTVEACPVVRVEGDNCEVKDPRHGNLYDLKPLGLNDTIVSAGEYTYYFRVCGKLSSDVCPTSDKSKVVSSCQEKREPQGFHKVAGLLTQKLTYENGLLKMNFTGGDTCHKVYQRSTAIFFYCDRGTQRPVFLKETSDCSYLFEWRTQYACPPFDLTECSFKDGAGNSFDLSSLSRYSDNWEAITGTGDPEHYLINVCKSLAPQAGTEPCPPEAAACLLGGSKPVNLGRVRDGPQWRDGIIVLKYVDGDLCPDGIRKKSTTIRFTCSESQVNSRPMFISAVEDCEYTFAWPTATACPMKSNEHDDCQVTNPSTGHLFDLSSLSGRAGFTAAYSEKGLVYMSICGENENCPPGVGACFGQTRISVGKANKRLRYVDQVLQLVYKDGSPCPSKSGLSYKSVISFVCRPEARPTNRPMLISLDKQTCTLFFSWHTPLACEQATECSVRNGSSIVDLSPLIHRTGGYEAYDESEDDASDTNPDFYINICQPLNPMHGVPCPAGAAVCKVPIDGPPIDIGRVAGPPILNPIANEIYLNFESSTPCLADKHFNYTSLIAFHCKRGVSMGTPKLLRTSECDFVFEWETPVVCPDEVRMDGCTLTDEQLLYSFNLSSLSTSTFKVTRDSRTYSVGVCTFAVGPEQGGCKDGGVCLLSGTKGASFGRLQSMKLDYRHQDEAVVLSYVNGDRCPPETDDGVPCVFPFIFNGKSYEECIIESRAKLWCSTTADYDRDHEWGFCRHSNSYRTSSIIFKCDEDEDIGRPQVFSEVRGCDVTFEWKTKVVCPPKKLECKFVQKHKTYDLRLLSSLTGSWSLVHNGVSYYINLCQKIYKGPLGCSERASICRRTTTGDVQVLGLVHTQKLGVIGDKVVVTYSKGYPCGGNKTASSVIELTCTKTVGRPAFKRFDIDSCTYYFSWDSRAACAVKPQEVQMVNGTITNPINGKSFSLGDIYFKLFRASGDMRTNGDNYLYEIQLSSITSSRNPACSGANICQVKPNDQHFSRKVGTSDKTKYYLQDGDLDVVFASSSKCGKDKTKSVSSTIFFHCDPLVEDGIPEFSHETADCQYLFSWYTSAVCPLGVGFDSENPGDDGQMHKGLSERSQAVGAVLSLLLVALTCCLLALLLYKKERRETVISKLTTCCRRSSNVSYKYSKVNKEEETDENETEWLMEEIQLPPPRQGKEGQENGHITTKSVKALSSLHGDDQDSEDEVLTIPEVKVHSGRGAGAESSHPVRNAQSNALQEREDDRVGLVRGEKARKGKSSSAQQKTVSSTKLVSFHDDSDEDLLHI

[2] = cited from earlier work

Molecule | uptake of IgG-AF647 with conjugates in presence of M6PR or ASGPR inhibitor (mouse IgG (IgG-AF647)) | relative binding affinity for the CIM6PR, compared to mannose-6-phosphate glycans [1] | serum stability compared to mannose-6-phosphate glycans [2]
CC(=O)N[C@H]1C(O)O[C@H](CO)[C@H](O)[C@@H]1O (mixture of isomers) [mGalNAc, monomeric GalNAc] | Uptake was reduced | – | –
C=CC(=O)OC[C@@H](O)[C@@H](O)[C@H](O)[C@H](O)C=O [Mannose-6-acrylate glycans, Mannose-6-acrylate] | – | 0.7 | better serum stability
O=P(O)(O)OC[C@H]1OC(O)[C@@H](O)[C@@H](O)[C@@H]1O (some centres unmarked) [mM6P, monomeric M6P] | Uptake was reduced | – | –
Mannose-6-carboxylate [Mannose-6-carboxylate glycans] | – | 0.3 | –
